Source: doi:10.1101/2025.08.21.671593v1, “Suppression and modulation mechanism underlying the flavonoid-induced inhibition of fibrillation of α-synuclein” (biorxiv, 2025)

Target: T1, α-synuclein (α-Syn, αSyn), monomeric (Homo sapiens, UniProt P37840)
T1 construct: gene SNCA; purified, unfolded monomer
Experiment: intrinsic tyrosine fluorescence quenching, modified Stern-Volmer plot
Details: 37 °C; protein 0.3 mg/mL, Cyanidin 2-30 μM; about 1:1; double-log; printed '8.4×10[5]'; paper calls it weak binding (mM range), which conflicts with this value

Compound: Oc1cc(O)c2cc(O)c(-c3ccc(O)c(O)c3)[o+]c2c1 [Cyanidin]
- Ka: 840000 M⁻¹
